Experiments:
[1] = reference 6; cited from earlier work
[2] = PS-80 degradation in protein formulations containing PLBL2 (unpublished results); assay type: physicochemical; settings: protein formulations containing over 500 ppm of PLBL2
serine hydrolases = experiment: Activity-based chemical proteomics approach (fluorophosphonate probe enrichment, LC-MS/MS); settings: HCCF, compared to other lipases

Substance | concentration at which PS-80 and PS-20 are degraded (as low as) [1] [ppm] | concentration with significant impact on PS-80 degradation [1] | PS-80 degradation [2] | enrichment of the enzyme by the chemical probes (serine hydrolases; listed as CHO PLBL2) | enrichment of the enzyme by the chemical probes (serine hydrolases; listed as Plbl2)
phospholipase A2, group XV [Pla2g15] | 0.3 | below 1 ppm |  |  | 
phospholipase B domain containing 2 [Plbd2] |  |  | without any PS-80 degradation | not enriched | limited enrichment
